Laboratory results published in the NIST ThermoML archive (doi:10.1021/je300339q).
Numbers after ± are expanded uncertainties.

Columns and labels:
[1] = mn = molality of the nth substance listed, in mol/kg; settings: 101 kPa, Liquid, Direct current cell with electrodes
[2] = 101.33 kPa, Liquid; for viscosity: Capillary tube (Ostwald / Ubbelohde) method; for mass density: Vibrating tube method

CCCCn1cc[n+](CCC)c1.[Br-] [1-butyl-3-propyl-1H-imidazolium bromide] + CC#N
molar conductivity [S·m2/mol], [1]
Settings	308 K	313 K	318 K
m1 = 0.01014	0.00955 ± 6e-06	0.010075 ± 7e-06	0.01063 ± 7e-06
m1 = 0.01352	0.00916 ± 6e-06	0.009604 ± 6e-06	0.010128 ± 7e-06
m1 = 0.01803	0.008751 ± 5e-06	0.009155 ± 6e-06	0.009627 ± 6e-06
m1 = 0.02405	0.008325 ± 5e-06	0.008691 ± 5e-06	0.009114 ± 6e-06
m1 = 0.0275	0.008123 ± 5e-06	–	–
m1 = 0.03209	0.007883 ± 4e-06	0.008213 ± 5e-06	0.008595 ± 5e-06
m1 = 0.04281	0.007424 ± 4e-06	0.007724 ± 4e-06	0.008054 ± 5e-06
m1 = 0.04875	–	0.007467 ± 4e-06	0.007807 ± 5e-06
m1 = 0.05714	0.006944 ± 4e-06	0.007222 ± 4e-06	0.007523 ± 4e-06
m1 = 0.0656	0.006707 ± 4e-06	0.006956 ± 4e-06	0.007255 ± 4e-06
m1 = 0.07628	0.006433 ± 4e-06	0.006701 ± 4e-06	0.006968 ± 4e-06
m1 = 0.08982	0.006124 ± 4e-06	0.006393 ± 4e-06	0.006648 ± 4e-06
m1 = 0.09987	0.00592 ± 4e-06	0.006199 ± 4e-06	0.006435 ± 4e-06

CCCCn1cc[n+](CCC)c1.[Br-] [1-butyl-3-propyl-1H-imidazolium bromide] + CO
molar conductivity [S·m2/mol], [1]
Settings	308 K	313 K	318 K
m1 = 0.005755	0.006546 ± 5e-06	–	0.00748 ± 6e-06
m1 = 0.007673	0.006395 ± 5e-06	0.006815 ± 6e-06	0.00729 ± 6e-06
m1 = 0.01023	0.006239 ± 5e-06	0.006658 ± 5e-06	0.007119 ± 6e-06
m1 = 0.01364	0.006083 ± 5e-06	0.006493 ± 5e-06	0.006946 ± 6e-06
m1 = 0.01819	0.005932 ± 5e-06	0.006333 ± 5e-06	0.006781 ± 6e-06
m1 = 0.02425	0.005792 ± 5e-06	0.006185 ± 5e-06	0.006627 ± 6e-06
m1 = 0.03234	0.005668 ± 5e-06	0.006052 ± 5e-06	0.006491 ± 5e-06
m1 = 0.04311	0.005561 ± 5e-06	0.005936 ± 5e-06	0.006371 ± 5e-06
m1 = 0.05749	0.005468 ± 5e-06	0.005832 ± 5e-06	0.006257 ± 5e-06
m1 = 0.07665	0.005372 ± 5e-06	0.005703 ± 5e-06	0.006123 ± 5e-06
m1 = 0.09017	0.005304 ± 4e-06	0.005611 ± 5e-06	0.006016 ± 5e-06
m1 = 0.1002	0.005238 ± 4e-06	0.00554 ± 5e-06	0.005923 ± 5e-06

CCCCn1cc[n+](CCC)c1.[Br-] [1-butyl-3-propyl-1H-imidazolium bromide] + O
molar conductivity [S·m2/mol], [1]
Settings	308 K	313 K	318 K
m1 = 0.005651	0.012224 ± 1.1e-05	0.013136 ± 1e-05	0.01387 ± 1e-05
m1 = 0.007536	0.012106 ± 1.1e-05	0.013013 ± 1e-05	0.01376 ± 1e-05
m1 = 0.01005	0.011972 ± 1.1e-05	0.012872 ± 1e-05	0.013625 ± 1e-05
m1 = 0.01341	0.011818 ± 1.1e-05	0.012712 ± 1e-05	0.013474 ± 1e-05
m1 = 0.0179	0.011642 ± 1.1e-05	0.012531 ± 1e-05	0.013305 ± 1e-05
m1 = 0.02389	0.011441 ± 1.1e-05	0.01232 ± 1e-05	0.013116 ± 1e-05
m1 = 0.0319	0.011212 ± 1.1e-05	0.012091 ± 1e-05	0.012905 ± 1e-05
m1 = 0.04262	0.01095 ± 1.1e-05	0.011824 ± 1.1e-05	0.012669 ± 1e-05
m1 = 0.05696	0.01065 ± 1e-05	0.011518 ± 1.1e-05	0.012401 ± 1.1e-05
m1 = 0.07621	0.010304 ± 1e-05	0.011165 ± 1.1e-05	0.012094 ± 1.1e-05
m1 = 0.08987	0.010084 ± 1e-05	0.01094 ± 1.1e-05	0.011898 ± 1.1e-05
m1 = 0.1	0.00996 ± 1e-05	0.0108 ± 1.1e-05	0.01177 ± 1.1e-05

CC#N [acetonitrile]
[2]
Settings	mass density [kg/m3]	viscosity [mPa·s]
308.15 K	765.64 ± 0.25	0.3125 ± 0.013
313.15 K	759.7 ± 0.25	0.3042 ± 0.013
318.15 K	755.01 ± 0.25	0.2903 ± 0.011

CO [methanol]
[2]
Settings	mass density [kg/m3]	viscosity [mPa·s]
308.15 K	777.18 ± 0.13	0.4747 ± 0.0059
313.15 K	772.5 ± 0.13	0.444 ± 0.0058
318.15 K	767.7 ± 0.13	0.4185 ± 0.0057
